SMILES strings stand for the structures. ≈ marks a conversion by molar mass, not a printed value. Like-named read-outs stand apart in the source and are kept apart here.

Here are results for four compounds from US11767341B2, “Lincosamide antibiotics and uses thereof” (President and Fellows of Harvard College, priority 2017, dated 2023).

Common to all, as to test: MIC determination
What all share (type): cell-based

The subject of one test is E. coli MMX 0121 ΔTolC. Particulars: Escherichia coli.
In test [1] the test system is E. coli MMX TolC parent strain. Particulars: Escherichia coli.
For test [2], the system named is S. pyogenes MMX 946 Macrolide-Resistant. Particulars: Streptococcus pyogenes.
Test [3] deals with S. aureus Micromyx USA 300. Particulars: Staphylococcus aureus, USA300.
Test [4] has as its system E. faecalis MMX 847 Macrolide-Resistant. The note with it: Enterococcus faecalis.
The next test concerns H. influenzae ATCC 49247. The note with it: Haemophilus influenzae, ATCC49247.
The next test relates to S. aureus MMX 3035 cErmA. Particulars: Staphylococcus aureus, MMX3035CERMA.
Test [5] deals with P. aeruginosa MMX Mex parent strain. Particulars: Pseudomonas aeruginosa.
The next test concerns P. aeruginosa ATCC 27853. The note with it: Pseudomonas aeruginosa, ATCC27853.
For another test, the system named is S. aureus BAA 977 iErmA. Particulars: Staphylococcus aureus, BAA977.
A further test deals with B. fragilis ATCC 25285. Particulars: Bacteroides fragilis, ATCC25285.
The test system of a further test is E. faecalis ATCC 29212. Particulars: Enterococcus faecalis.
For test [6], the system named is S. pneumoniae MMX 3031 cMefA. The note with it: Streptococcus pneumoniae, MMX3031CMEFA.
The test system of the next test is E. coli ATCC 25922. The note with it: Escherichia coli.
In test [7] the test system is P. aeruginosa MMX 3476 Δmex. Particulars: Pseudomonas aeruginosa.
A further test concerns S. pyogenes ATCC 19615. The note with it: Streptococcus pyogenes, ATCC19615; S. pyogenes ATCC 19615; read-out: MIC.
The test system of test [8] is S. pneumoniae MMX 3028 cErmB. The note with it: Streptococcus pneumoniae, MMX3028CERMB.
Another test concerns S. pneumoniae ATCC 49619. Particulars: Streptococcus pneumoniae, ATCC49619; S. pneumoniae ATCC 49619; read-out: MIC.
The next test has as its system S. aureus ATCC 29213. The note with it: Staphylococcus aureus.
For another test, the system named is C. difficile BAA 1805. Particulars: Clostridioides difficile, BAA1805.
The test system of a further test is K. pneumoniae ATCC 10031. Particulars: Klebsiella pneumoniae, ATCC10031; K. pneumoniae ATCC 10031; read-out: MIC.
For the next test, the system named is E. coli MP-9 ΔTolC. Particulars: Escherichia coli.
The subject of test [9] is S. aureus MP-549 msr(a) USA 300. Particulars: Staphylococcus aureus, USA300, S. aureus MP-549 msr(a) USA 300.

Consider `Cc1ccc(S(=O)(=O)OCC2O[C@H]([C@H](NC(=O)[C@H]3NC[C@@H]4CC=CCO[C@H]43)[C@@H](C)O)C(O)[C@@H](O)[C@H]2O)cc1` (stereo partly drawn) [FSA-211030], for which the MIC (against E. coli MMX 0121 ΔTolC; in test [1]; in test [2]; in [3]; in [4]; with H. influenzae ATCC 49247) was over 64 µg/mL throughout. In addition, the MIC (against S. aureus MMX 3035 cErmA; in [5]; in the test with P. aeruginosa ATCC 27853; against S. aureus BAA 977 iErmA; against B. fragilis ATCC 25285; against E. faecalis ATCC 29212 (ATCC29212)) was over 64 µg/mL each time. Further, the MIC was 32 µg/mL (≈ 57.5 µM) in test [6]; over 64 µg/mL against E. coli ATCC 25922 (ATCC25922); over 64 µg/mL in test [7]; 1 µg/mL (≈ 1.8 µM) in the test with S. pyogenes ATCC 19615; over 64 µg/mL in test [8]; 32 µg/mL (≈ 57.5 µM) in the test on S. pneumoniae ATCC 49619. Further, the MIC in the test on S. aureus ATCC 29213 (ATCC29213) and against C. difficile BAA 1805 was over 64 µg/mL throughout.
`C[C@@H](O)[C@@H](NC(=O)[C@H]1NC[C@@H]2CC=CCO[C@H]21)[C@H]1OC(CN=[N+]=[N-])[C@H](O)[C@H](O)C1O` (stereo partly drawn) [FSA-211064]: the MIC (with E. coli MMX 0121 ΔTolC; in test [1]; in test [2]; in test [3]; in [4]; in the test with H. influenzae ATCC 49247) was over 64 µg/mL in each case. In addition, the MIC (against S. aureus MMX 3035 cErmA; in test [5]; in the test with P. aeruginosa ATCC 27853; against S. aureus BAA 977 iErmA; with B. fragilis ATCC 25285; with E. faecalis ATCC 29212 (ATCC29212)) was over 64 µg/mL throughout. Besides, the MIC was 16 µg/mL (≈ 37.4 µM) in [6]; over 64 µg/mL in the test on E. coli ATCC 25922 (ATCC25922); over 64 µg/mL in test [7]; 4 µg/mL (≈ 9.36 µM) in the test with S. pyogenes ATCC 19615; over 64 µg/mL in test [8]; 16 µg/mL (≈ 37.4 µM) in the test with S. pneumoniae ATCC 49619. Also, the MIC is over 64 µg/mL against S. aureus ATCC 29213 (ATCC29213) and 64 µg/mL (≈ 150 µM) in the test with C. difficile BAA 1805 (C. difficile BAA 1805, read-out: MIC).
Take `CSC1O[C@H]([C@H](NC(=O)[C@@H]2[C@@H]3OCC=CC[C@H]3CN2C)[C@H](C)Sc2ccc(-c3cccnc3)cc2)C(O)[C@@H](O)[C@H]1O` (stereo partly drawn) [FSA-213064]: the MIC in test [2] (S. pyogenes MMX 946 Macrolide-Resistant (MacRes), read-out: MIC) was 2 µg/mL (≈ 3.32 µM); in test [4] (E. faecalis MMX 847 Macrolide-Resistant (MacRes), read-out: MIC), over 64 µg/mL; with K. pneumoniae ATCC 10031, 64 µg/mL (≈ 106 µM); against S. aureus MMX 3035 cErmA, 16 µg/mL (≈ 26.6 µM); with P. aeruginosa ATCC 27853 (P. aeruginosa ATCC 27853, read-out: MIC) it was over 64 µg/mL; in the test on S. aureus BAA 977 iErmA, 0.25 µg/mL (≈ 0.415 µM). Moreover, the MIC with E. faecalis ATCC 29212 (ATCC29212, read-out: MIC) was 32 µg/mL (≈ 53.2 µM); in test [6] it was 0.125 µg/mL (≈ 0.208 µM); with E. coli ATCC 25922 (ATCC25922, E. coli ATCC 25922, read-out: MIC), over 64 µg/mL; in the test with E. coli MP-9 ΔTolC, 16 µg/mL (≈ 26.6 µM); in the test on S. pyogenes ATCC 19615, at most 0.125 µg/mL; in test [8] (S. pneumoniae MMX 3028 cErmB, read-out: MIC), 8 µg/mL (≈ 13.3 µM). In addition, the MIC in the test on S. pneumoniae ATCC 49619 is at most 0.125 µg/mL; with S. aureus ATCC 29213 (ATCC29213, S. aureus ATCC 29213, read-out: MIC), 0.25 µg/mL (≈ 0.415 µM); in test [9], 0.25 µg/mL (≈ 0.415 µM).
`CSC1O[C@H]([C@H](NC(=O)[C@H]2NC[C@@H]3C=C(c4ccccc4)CCO[C@@H]23)[C@H](C)Cl)C(O)[C@@H](O)[C@H]1O` (stereo partly drawn) [FSA-507031]: the MIC in the test on E. coli MMX 0121 ΔTolC was over 32 µg/mL; in test [1], over 32 µg/mL; in test [2], over 32 µg/mL; in [3], over 32 µg/mL; in test [4], over 32 µg/mL; in the test on H. influenzae ATCC 49247 (H. influenzae ATCC 49247, read-out: MIC), 8 µg/mL (≈ 15.6 µM). The MIC against S. aureus MMX 3035 cErmA is over 32 µg/mL; in [5], over 32 µg/mL; against P. aeruginosa ATCC 27853, over 32 µg/mL; with S. aureus BAA 977 iErmA, over 32 µg/mL; in the test on B. fragilis ATCC 25285 (B. fragilis ATCC 25285, read-out: MIC), 32 µg/mL (≈ 62.4 µM); with E. faecalis ATCC 29212 (ATCC29212) it was over 32 µg/mL. Also, the MIC in [6] is 16 µg/mL (≈ 31.2 µM); in the test with E. coli ATCC 25922 (ATCC25922), over 32 µg/mL; in test [7], over 32 µg/mL; with S. pyogenes ATCC 19615 it was 32 µg/mL (≈ 62.4 µM); in [8], over 32 µg/mL; in the test with S. pneumoniae ATCC 49619, 32 µg/mL (≈ 62.4 µM). Moreover, the MIC against S. aureus ATCC 29213 (ATCC29213) and with C. difficile BAA 1805 was over 32 µg/mL each time.
